For 19 compounds, TGI and GI50 results are on record in PubChem BioAssay (NCI).

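Test compounds were applied to cells in 96-well plates for 48 hours at 5 doses. GI50 = concentration required for 50% inhibition of growth. Definition used: TGI = concentration required for complete inhibition of growth.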 Where only a bound is given, the exact number is not on record here.

Assay in all cases: growth of human tumour cells (NCI), 48 h
Experiment [1] concerns HCT-15 colon.
For experiment [2], the system named is HOP-92 NSCLC.
The test system of experiment [3] is K-562 leukemia.
The subject of experiment [4] is UACC-62 melanoma.
Experiment [5] deals with A498 renal.
Experiment [6] relates to NCI-H23 lung.
Experiment [7] relates to NCI/ADR-RES ovarian.
The subject of experiment [8] is HT29 colon.
Experiment [9] has as its system MALME-3M melanoma.
Experiment [10] has as its system KM12 colon.

Take `CC1=NN(C(=O)c2ccc(C)cc2)C(=O)C1N=Nc1ccccc1C(=O)O` (stereo unspecified): the TGI in experiment [1], in [2], in experiment [3], in experiment [4], in [5] and in [6] was more than 100 µM in each case. Also, the TGI in experiment [7], in [8], in experiment [9] and in experiment [10] was more than 100 µM in each case.

For the compound `CCOc1cc(/C=C/C(=O)CC(=O)/C=C/c2ccc(OC(=O)CNCCN(CC)CC)c(OCC)c2)ccc1OC(=O)CNCCN(CC)CC`, the GI50 in [1] is 2.06 µM; in experiment [2], 1.74 µM; in experiment [3], 1.44 µM; in [4], 1.53 µM; in [5] it was 2.02 µM; in experiment [7], 3.46 µM. Besides, the GI50 is 1.91 µM in experiment [9] and 1.4 µM in experiment [10]. The TGI was determined as 4.66 µM in experiment [1]; 6.2 µM in experiment [2]; 16.3 µM in experiment [3]; 3.16 µM in experiment [4]; 3.85 µM in experiment [5]; 24.1 µM in experiment [7]. The values for the TGI in experiment [9] and in experiment [10] were 4.12 µM and 2.97 µM, respectively.

In the case of `CCN(CC)C(=S)SSCCO`, the GI50 in experiment [1] is 17.9 µM; in [2] it was 14.6 µM; in experiment [3], 4.21 µM; in experiment [4], 15.3 µM; in [5] it was 85 µM; in experiment [6], 16.4 µM. For the same compound, the GI50 in experiment [7] is 17.1 µM; in experiment [8], 17 µM; in experiment [9], 17.9 µM; in [10] it was 15 µM. Moreover, the TGI in [1] is 38.4 µM; in experiment [2], 27.7 µM; in experiment [3], 18 µM; in experiment [4], 29.2 µM; in experiment [5], more than 100 µM; in experiment [6] it was 31.5 µM. Besides, the TGI stood at 32.5 µM in [7], 30.8 µM in experiment [8], 35 µM in [9] and 30.1 µM in [10].

As for `Cc1ccc2oc3c(ccc(=O)n3C)c(=O)c2c1`, the TGI in [1], in experiment [2], in experiment [3], in experiment [4], in experiment [5] and in experiment [6] was more than 100 µM throughout. Besides, the TGI in experiment [7], in experiment [8], in experiment [9] and in experiment [10] was more than 100 µM in each case.

For the compound `CO/C(=N\N=C(/c1ccccc1)C(F)(F)F)c1ccncc1`, the TGI in experiment [1], in experiment [2], in experiment [3], in [4], in experiment [5] and in experiment [6] was more than 100 µM throughout. Moreover, the TGI in experiment [7] was 71.6 µM; in experiment [8], more than 100 µM; in experiment [9], more than 100 µM; in experiment [10], more than 100 µM.

Take `N/C(=N\N=C/c1cc([N+](=O)[O-])cc([N+](=O)[O-])c1O)NO`: the TGI in experiment [1] was more than 100 µM; in experiment [2] it was more than 100 µM; in experiment [3], more than 91.2 µM; in [4], more than 31.1 µM; in [5] it was more than 100 µM; in experiment [6] it was more than 100 µM. In addition, the TGI in experiment [7], in experiment [8], in experiment [9] and in [10] was more than 100 µM in each case.

For `CC(C)(CC1(C)NC(=O)NC1=O)OCc1ccccc1` (stereo unspecified), the TGI in experiment [1], in [2], in experiment [3], in experiment [4], in experiment [5] and in experiment [6] was more than 100 µM each time. Moreover, the TGI in experiment [7], in experiment [8], in experiment [9] and in [10] was more than 100 µM in each case.

Take `Fc1ccc(C(OCCN2CC3CC2CN3)c2ccc(F)cc2)cc1` (stereo unspecified): the TGI in [1] was more than 100 µM; in experiment [2], more than 100 µM; in [3], more than 100 µM; in [4], 37.3 µM; in experiment [5] it was more than 100 µM; in experiment [6], more than 100 µM. In addition, the TGI was more than 100 µM in experiment [7], 32.3 µM in experiment [9] and more than 100 µM in [10].

With `CCOC(=O)[C@H]1Nc2c(cccc2[N+](=O)[O-])C2c3ccccc3CC21` (stereo partly specified), the TGI in experiment [1] was more than 100 µM; in experiment [3], more than 100 µM; in [4], more than 100 µM; in [6], more than 100 µM; in [8], 74.9 µM; in [9], more than 100 µM. Also, the TGI in experiment [10] was more than 100 µM.

With `CC1CCN(c2cc(-c3cc4ccccc4o3)oc(=O)c2C#N)CC1`, the TGI in experiment [1] was more than 100 µM; in [2], 79 µM; in experiment [3] it was more than 100 µM; in experiment [5], more than 100 µM; in [6] it was more than 100 µM; in experiment [8], more than 100 µM. Also, the TGI in [9] and in [10] was more than 100 µM in each case.

For `O=c1[nH]c(=S)[nH]c2c(C3OC(CO)C(O)C3O)nsc12` (stereo unspecified), the TGI in [1], in experiment [2], in experiment [3], in experiment [4], in [5] and in experiment [7] was more than 100 µM throughout. Moreover, the TGI in experiment [8] and in [9] was more than 100 µM in each case.

As for `c1csc(C(NC2=NCCO2)C2CC2)c1` (stereo unspecified), the TGI in [1], in experiment [2], in experiment [4], in experiment [5], in experiment [6] and in [8] was more than 100 µM throughout.

Take `COc1cccc(/C=N/[N-]C(N)=O)c1[O-].[OH3+].[Pd+2]`: the TGI in experiment [1], in experiment [2], in experiment [3], in experiment [4], in [5] and in [6] was more than 100 µM each time. Moreover, the TGI in [8], in experiment [9] and in experiment [10] was more than 100 µM throughout.

For the compound `CCN1C(=O)N2C(OC)c3ccccc3C(Br)C2(OC)C1=O` (stereo unspecified), the TGI in [1], in experiment [3], in experiment [4], in [5], in experiment [6] and in experiment [9] was more than 100 µM each time. The compound further registered a TGI in experiment [10] of more than 100 µM.

As for `CC(=O)Nc1cc(/C=C\C(=O)N2CC(CCl)c3c2cc(N)c2ccccc32)n(C)n1` (stereo unspecified), the figures for the GI50 in experiment [1] and in experiment [7] were 0.0167 µM and 0.103 µM, respectively. Also, the TGI in experiment [1] was more than 100 µM; in [2], more than 100 µM; in experiment [3], 0.0203 µM; in [4], 0.0284 µM; in experiment [5], 0.0211 µM; in experiment [6], 0.0273 µM.

With `Clc1ccc(-c2nnc(-c3nsc4ccccc34)o2)cc1`, the TGI in experiment [1] is more than 100 µM; in experiment [2], 46.2 µM; in experiment [4], more than 100 µM; in experiment [6] it was 74.1 µM; in experiment [8], more than 100 µM; in experiment [10] it was more than 100 µM.

Consider `N=C(N)c1ccc(N=Nc2c(O)ccc3cc(O)ccc23)cc1`, for which the TGI in experiment [1], in experiment [2], in [3], in [4], in [7] and in experiment [8] was more than 100 µM throughout. Further, the TGI in experiment [9] and in experiment [10] was more than 100 µM each time.

For `O=S(=O)(c1ccc2ccccc2c1)N1CCN(S(=O)(=O)c2ccc3ccccc3c2)CC1`, the TGI in experiment [1], in experiment [2], in [3], in experiment [4], in experiment [5] and in experiment [6] was more than 100 µM throughout. For the same compound, the TGI in experiment [7], in experiment [8], in [9] and in experiment [10] was more than 100 µM throughout.

Take `O=C(/C=C\c1ccc(/C=C/C(=O)Nc2cccc(C3=NCCCN3)c2)cc1)Nc1cccc(C2=NCCCN2)c1`: the TGI in experiment [1], in [2], in [3], in experiment [5], in experiment [6] and in [7] was more than 100 µM in each case. Also, the TGI in experiment [8], in experiment [9] and in [10] was more than 100 µM in each case.
